The subject of assay [1] is Serine/threonine-protein kinase B-raf (Homo sapiens), P15056 [V600E]. Briefly: (§1) Selectivity interaction (LanthaScreen Eu Kinase Binding Assay) EUB0001632a BRAF. The conditions noted are these: at 10 µM. (In TR-FRET formats the signal depends on donor and acceptor labels being close together.)
Assay [2] deals with Serine/threonine-protein kinase B-raf (Homo sapiens) (UniProt P15056). The assay is described as §1. The conditions noted are these: at 10 µM.
For assay [3], the target named is Tyrosine-protein kinase receptor Tie-1 (Homo sapiens) (UniProt P35590). The experiment in a line: Selectivity interaction (KinomeScan (DiscoverX)) EUB0000699a TIE1. Particulars: at 10 µM.
Tyrosine-protein kinase receptor Tie-1 (Homo sapiens), sequence (P35590 whole entry): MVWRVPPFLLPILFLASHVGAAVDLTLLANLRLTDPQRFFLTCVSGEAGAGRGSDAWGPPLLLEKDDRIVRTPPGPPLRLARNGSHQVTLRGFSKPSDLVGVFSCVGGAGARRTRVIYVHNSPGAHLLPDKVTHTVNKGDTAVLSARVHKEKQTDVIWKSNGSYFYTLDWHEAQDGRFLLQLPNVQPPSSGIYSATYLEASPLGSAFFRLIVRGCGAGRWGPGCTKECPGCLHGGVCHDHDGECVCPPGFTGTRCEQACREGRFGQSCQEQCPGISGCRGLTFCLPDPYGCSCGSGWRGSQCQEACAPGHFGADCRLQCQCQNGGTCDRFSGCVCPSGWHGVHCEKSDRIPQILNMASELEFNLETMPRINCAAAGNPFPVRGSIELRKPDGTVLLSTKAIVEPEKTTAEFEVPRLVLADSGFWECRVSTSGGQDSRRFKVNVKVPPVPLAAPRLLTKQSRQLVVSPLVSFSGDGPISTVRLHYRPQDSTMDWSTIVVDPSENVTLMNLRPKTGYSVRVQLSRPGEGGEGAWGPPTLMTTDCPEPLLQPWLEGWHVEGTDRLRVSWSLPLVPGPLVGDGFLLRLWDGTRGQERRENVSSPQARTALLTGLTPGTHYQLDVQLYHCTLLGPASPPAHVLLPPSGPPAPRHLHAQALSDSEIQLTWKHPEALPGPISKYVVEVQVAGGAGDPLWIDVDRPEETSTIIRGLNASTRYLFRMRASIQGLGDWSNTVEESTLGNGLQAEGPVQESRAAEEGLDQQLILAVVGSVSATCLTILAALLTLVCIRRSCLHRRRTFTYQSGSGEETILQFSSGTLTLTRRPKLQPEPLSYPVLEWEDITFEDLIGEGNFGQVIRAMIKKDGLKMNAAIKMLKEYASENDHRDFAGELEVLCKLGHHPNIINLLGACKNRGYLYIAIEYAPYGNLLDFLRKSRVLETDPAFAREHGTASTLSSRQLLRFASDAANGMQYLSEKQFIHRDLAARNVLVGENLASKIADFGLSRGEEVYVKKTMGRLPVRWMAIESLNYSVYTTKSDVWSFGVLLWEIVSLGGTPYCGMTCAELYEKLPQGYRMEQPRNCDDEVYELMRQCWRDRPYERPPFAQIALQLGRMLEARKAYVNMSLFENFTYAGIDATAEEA
Assay [4] has as its target T1, Serine/threonine-protein kinase 17B (Homo sapiens) (UniProt O94768).
T1 sequence (whole entry): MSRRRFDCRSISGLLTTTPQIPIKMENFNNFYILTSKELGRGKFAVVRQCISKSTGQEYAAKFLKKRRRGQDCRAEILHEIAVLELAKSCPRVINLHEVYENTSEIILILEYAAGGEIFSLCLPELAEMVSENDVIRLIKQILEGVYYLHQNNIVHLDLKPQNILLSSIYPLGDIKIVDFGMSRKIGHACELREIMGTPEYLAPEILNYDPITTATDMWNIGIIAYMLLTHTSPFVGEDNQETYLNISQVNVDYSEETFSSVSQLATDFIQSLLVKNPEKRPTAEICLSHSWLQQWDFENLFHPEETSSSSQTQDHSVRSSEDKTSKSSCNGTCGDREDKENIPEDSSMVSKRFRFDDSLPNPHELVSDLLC
The conditions noted are these: at 10 µM.

For assay [5], the target named is Calcium/calmodulin-dependent protein kinase type II subunit beta (Homo sapiens) (UniProt Q13554). The experiment in a line: Selectivity interaction (Kinase panel (Invitrogen)) EUB0000639a CAMK2B. Particulars: at 200 nM.
Calcium/calmodulin-dependent protein kinase type II subunit beta (Homo sapiens), sequence (Q13554 whole entry): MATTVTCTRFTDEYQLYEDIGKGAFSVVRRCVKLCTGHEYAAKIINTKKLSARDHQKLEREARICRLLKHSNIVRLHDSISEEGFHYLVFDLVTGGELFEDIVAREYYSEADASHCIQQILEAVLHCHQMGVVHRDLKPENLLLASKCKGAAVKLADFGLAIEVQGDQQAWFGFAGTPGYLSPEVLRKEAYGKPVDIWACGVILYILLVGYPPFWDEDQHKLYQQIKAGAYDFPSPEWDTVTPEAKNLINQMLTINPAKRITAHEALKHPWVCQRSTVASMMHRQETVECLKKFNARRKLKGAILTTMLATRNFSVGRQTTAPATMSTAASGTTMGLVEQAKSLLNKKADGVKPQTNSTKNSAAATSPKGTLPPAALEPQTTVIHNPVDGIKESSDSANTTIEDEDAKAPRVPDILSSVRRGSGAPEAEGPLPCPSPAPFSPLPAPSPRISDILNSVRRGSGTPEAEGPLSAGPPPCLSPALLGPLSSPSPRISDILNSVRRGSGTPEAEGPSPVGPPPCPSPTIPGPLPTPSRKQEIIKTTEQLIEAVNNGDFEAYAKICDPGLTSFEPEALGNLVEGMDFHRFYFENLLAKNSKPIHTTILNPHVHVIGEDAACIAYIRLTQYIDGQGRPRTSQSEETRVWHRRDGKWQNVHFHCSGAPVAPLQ
Assay [6] deals with Ribosomal protein S6 kinase alpha-1 (Homo sapiens, UniProt Q15418). The experiment in a line: Selectivity interaction (ActivX KiNativ screen (kinase selectivity in THP-1 cell lysates)) EUB0000639a RPS6KA1. The format is subcellular. The conditions noted are these: lysate, at 0.2 µM.
Ribosomal protein S6 kinase alpha-1, sequence (Q15418 whole entry): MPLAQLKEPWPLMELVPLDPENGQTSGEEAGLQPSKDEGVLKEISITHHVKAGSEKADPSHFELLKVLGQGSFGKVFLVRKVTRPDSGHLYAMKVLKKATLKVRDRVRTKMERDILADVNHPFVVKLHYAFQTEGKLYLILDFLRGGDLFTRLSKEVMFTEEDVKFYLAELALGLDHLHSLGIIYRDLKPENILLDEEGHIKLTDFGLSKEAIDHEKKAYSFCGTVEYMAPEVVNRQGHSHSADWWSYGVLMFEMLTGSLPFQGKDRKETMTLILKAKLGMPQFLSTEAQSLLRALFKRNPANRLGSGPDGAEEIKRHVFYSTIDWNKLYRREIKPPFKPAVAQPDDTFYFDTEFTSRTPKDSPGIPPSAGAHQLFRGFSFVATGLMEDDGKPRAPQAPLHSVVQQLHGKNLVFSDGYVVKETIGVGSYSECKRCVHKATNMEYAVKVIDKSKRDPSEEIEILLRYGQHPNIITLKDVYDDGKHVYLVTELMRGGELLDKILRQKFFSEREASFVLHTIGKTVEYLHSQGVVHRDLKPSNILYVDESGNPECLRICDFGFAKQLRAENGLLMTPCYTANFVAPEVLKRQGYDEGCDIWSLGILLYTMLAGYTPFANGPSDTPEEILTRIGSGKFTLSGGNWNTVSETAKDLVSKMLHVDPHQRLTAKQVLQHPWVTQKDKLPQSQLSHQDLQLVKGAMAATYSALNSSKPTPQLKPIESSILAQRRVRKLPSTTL
The target of assay [7] is T2, Serine/threonine-protein kinase TBK1 (Homo sapiens) (UniProt Q9UHD2).
T2 sequence (whole entry): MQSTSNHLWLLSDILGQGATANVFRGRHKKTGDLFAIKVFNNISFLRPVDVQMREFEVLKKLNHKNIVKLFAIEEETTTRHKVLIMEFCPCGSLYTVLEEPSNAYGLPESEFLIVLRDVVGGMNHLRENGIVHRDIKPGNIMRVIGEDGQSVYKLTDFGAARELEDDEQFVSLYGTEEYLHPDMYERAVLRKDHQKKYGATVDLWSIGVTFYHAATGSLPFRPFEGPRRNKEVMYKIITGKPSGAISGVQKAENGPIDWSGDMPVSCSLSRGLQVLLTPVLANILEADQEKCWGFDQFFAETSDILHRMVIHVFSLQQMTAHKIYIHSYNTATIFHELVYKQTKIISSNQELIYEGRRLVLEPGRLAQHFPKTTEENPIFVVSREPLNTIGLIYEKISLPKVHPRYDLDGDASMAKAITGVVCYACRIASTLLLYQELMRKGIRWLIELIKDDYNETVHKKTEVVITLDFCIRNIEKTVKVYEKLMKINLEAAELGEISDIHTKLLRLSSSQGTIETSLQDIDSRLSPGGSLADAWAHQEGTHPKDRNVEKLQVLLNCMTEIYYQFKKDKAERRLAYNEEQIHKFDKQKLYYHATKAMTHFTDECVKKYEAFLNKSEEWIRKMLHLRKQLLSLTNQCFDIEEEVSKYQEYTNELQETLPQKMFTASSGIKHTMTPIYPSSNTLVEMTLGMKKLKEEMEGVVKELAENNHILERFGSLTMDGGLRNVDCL
The experiment in a line: Selectivity interaction (ActivX KiNativ screen (kinase selectivity in THP-1 cell lysates)) EUB0000639a TBK1. The format is subcellular. Particulars: lysate, at 0.01 µM.

Assay [8] deals with Serine/threonine-protein kinase 26 (Homo sapiens, UniProt Q9P289). The experiment in a line: Selectivity interaction (KinomeScan (DiscoverX)) EUB0001049a STK26. Particulars: at 1 µM.
Serine/threonine-protein kinase 26, sequence (Q9P289 2-416 limits assumed): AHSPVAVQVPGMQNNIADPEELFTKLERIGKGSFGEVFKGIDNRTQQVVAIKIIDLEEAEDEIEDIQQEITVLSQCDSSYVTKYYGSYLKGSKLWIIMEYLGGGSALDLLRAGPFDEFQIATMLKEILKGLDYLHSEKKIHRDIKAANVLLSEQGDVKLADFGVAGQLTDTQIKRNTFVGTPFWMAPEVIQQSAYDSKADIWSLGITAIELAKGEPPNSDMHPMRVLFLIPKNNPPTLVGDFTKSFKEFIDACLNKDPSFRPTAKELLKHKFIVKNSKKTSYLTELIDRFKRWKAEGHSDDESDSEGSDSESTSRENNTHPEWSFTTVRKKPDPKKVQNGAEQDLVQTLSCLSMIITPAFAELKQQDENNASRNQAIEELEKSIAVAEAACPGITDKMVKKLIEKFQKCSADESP
Assay [9] has as its target T3, Protein arginine N-methyltransferase 7 (Homo sapiens) (UniProt Q9NVM4).
T3 sequence (whole entry): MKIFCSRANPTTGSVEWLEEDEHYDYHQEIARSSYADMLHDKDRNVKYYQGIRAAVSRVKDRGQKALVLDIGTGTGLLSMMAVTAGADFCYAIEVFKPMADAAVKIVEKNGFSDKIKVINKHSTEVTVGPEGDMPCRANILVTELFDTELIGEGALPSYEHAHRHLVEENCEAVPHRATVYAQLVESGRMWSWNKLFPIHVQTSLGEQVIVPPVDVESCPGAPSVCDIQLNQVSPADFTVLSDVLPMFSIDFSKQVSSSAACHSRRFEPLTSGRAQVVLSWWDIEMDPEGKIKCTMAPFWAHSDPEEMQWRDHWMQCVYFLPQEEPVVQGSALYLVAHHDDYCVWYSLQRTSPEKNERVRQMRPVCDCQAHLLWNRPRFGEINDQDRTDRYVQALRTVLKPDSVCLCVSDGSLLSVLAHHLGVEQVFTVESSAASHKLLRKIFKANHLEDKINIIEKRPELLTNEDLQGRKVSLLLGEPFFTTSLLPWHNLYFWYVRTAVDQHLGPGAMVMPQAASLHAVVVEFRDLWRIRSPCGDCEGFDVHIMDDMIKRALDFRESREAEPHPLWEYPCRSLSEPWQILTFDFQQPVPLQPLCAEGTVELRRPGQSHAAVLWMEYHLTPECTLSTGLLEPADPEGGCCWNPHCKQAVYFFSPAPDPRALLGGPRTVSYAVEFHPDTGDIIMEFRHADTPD
The experiment in a line: Selectivity interaction (Transferase panel (protein, RNA, and DNA methyltransferases. and EP300 (acetyltransferase))) EUB0000270b PRMT7.

Assay [10] deals with Epidermal growth factor receptor (Homo sapiens), P00533 [UNDEFINED MUTATION]. Briefly: Selectivity interaction (KinomeScan (DiscoverX)) EUB0000618a EGFR. The conditions noted are these: at 10 µM.
Epidermal growth factor receptor (Homo sapiens), P00533 [UNDEFINED MUTATION], sequence (P00533 whole entry, looked up, change not shown): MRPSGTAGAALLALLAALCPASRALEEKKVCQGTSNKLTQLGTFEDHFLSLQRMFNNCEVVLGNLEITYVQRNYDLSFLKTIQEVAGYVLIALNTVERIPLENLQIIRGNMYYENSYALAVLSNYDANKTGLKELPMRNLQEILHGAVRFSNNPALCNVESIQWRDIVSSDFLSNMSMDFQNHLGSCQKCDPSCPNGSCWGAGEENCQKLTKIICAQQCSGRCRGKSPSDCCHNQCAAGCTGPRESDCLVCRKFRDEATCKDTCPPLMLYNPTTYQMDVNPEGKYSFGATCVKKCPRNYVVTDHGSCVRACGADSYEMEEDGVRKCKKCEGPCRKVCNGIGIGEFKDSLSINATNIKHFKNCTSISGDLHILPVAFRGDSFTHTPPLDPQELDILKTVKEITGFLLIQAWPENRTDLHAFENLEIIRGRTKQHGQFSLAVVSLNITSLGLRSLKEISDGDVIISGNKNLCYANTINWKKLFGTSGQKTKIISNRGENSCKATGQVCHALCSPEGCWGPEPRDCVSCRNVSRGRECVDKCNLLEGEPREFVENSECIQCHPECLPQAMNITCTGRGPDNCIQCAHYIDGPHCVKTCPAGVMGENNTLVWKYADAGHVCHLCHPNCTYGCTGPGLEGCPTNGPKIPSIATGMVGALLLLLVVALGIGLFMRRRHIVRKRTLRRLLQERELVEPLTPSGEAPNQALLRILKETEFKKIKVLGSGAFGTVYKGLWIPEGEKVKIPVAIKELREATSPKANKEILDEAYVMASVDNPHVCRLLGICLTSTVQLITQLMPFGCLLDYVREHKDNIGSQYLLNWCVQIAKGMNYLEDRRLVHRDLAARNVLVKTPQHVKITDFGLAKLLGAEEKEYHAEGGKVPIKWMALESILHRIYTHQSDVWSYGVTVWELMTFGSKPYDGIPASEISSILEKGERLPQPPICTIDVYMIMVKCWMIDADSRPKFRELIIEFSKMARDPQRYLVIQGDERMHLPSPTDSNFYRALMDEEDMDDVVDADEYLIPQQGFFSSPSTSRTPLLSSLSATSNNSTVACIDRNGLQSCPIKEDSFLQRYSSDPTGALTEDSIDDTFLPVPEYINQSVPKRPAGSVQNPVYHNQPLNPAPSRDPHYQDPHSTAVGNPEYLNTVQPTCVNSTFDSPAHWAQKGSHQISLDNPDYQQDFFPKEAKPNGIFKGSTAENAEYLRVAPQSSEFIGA
Assay [11] has as its target T4, Aurora kinase C (Homo sapiens) (UniProt Q9UQB9).
T4 sequence (whole entry): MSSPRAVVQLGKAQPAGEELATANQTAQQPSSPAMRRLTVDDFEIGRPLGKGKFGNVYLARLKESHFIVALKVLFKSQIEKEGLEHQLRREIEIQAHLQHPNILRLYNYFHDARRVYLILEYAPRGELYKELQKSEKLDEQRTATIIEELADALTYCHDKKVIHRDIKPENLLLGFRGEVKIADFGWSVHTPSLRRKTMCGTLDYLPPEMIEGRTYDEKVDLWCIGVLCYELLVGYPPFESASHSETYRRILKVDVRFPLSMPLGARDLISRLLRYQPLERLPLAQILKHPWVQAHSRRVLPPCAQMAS
The experiment in a line: Selectivity interaction (KinomeScan (DiscoverX)) EUB0000092b AURKC. The conditions noted are these: at 10 µM.

Serine/threonine-protein kinase B-raf (Homo sapiens), sequence (P15056 whole entry): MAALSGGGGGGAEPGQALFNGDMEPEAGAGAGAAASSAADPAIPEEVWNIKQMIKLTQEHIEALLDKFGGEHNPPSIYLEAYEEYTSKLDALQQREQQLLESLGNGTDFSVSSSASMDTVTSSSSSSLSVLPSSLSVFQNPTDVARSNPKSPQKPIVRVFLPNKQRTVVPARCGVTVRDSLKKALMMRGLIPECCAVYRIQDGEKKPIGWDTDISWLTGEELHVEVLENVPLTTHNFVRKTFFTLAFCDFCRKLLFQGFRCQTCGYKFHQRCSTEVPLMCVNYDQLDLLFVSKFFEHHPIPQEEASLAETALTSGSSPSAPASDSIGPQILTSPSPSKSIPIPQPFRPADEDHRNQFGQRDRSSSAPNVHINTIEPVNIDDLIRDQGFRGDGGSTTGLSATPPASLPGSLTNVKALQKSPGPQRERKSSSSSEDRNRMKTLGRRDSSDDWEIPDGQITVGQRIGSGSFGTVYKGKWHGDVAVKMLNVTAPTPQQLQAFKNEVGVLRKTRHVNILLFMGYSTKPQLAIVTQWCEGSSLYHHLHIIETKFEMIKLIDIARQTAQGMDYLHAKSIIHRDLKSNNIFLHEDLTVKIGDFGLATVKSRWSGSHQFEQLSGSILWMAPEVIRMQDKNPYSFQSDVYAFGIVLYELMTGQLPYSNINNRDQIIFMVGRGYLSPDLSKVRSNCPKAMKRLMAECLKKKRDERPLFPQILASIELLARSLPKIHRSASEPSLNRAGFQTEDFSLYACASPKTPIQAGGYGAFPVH
Serine/threonine-protein kinase B-raf (Homo sapiens), P15056 [V600E], sequence (P15056 whole entry V600E): as the sequence (P15056 whole entry) above, with V600E counted along it

As to `Cn1cc(-n2cnc3c(NCc4nc5cc(Cl)c(Cl)cc5[nH]4)nc(N4CCOCC4)nc32)cn1`, the % of inhibition in [1] came out at 9.14%; in [2], 5.68%.

For `CCN(CC)CCCCNc1ncc2cc(-c3cc(OC)cc(OC)c3)c(NC(=O)NC(C)(C)C)nc2n1`, the % of control in assay [3] stood at 12%.

In turn, `Cc1cc([C@@H](C)Nc2ccccc2C(=O)O)c2nc(N3CCOCC3)cc(=O)n2c1` [AZD-6482] had a % of control in [4] of 100%.

For the compound `CC[C@@H]1[C@H](F)C(=O)N[C@@H]1COc1nccc2cc(C(N)=O)c(OC)cc12` [ZIMLOVISERTIB], the % of inhibition came out at 10.8% in [5], 13.8% in assay [6] and 1.3% in assay [7].

In turn, `COc1cc(Nc2nc(C)cc(-c3cnn4nc(OC)ccc34)n2)cc(C(F)(F)F)c1` showed a % of control in assay [8] of 85%.

As to `Cc1cc(CN)cc(C)c1-c1ncn(C)c1-c1cncn1C`, the % activity in [9] (at 1 µM) was more than 90%; in assay [9] (at 10 µM) it was more than 80%.

Compound `O[C@H]1CC[C@H](Nc2ncc3nc(Nc4c(F)cc(F)cc4F)n([C@H]4CCOC4)c3n2)CC1` returned a % of control in assay [10] of 9.4%.

The compound `CCC(=O)N1CCN(c2ccc(-n3c(=O)ccc4cnc5ccc(-c6cnc7ccccc7c6)cc5c43)cc2C(F)(F)F)CC1` registered a % of control in assay [11] of 91%.

Values taken from ChEMBL document CHEMBL5465560, “Selectivity Literature for EUbOPEN Chemogenomic Library” (2024).
